US20230255903A1, “URINARY SYMPTOM THERAPEUTIC AGENT” (TAIHO PHARMACEUTICAL CO., LTD., priority 2020, published 2023)
Values joined by “and” are separate entries in the source; they are usually repeats but may differ in a detail not shown here. Equal values may be shown once.

Columns and labels:
[1] = system: patients having detrusor underactivity (DU); test: Placebo-controlled double-blind comparative study: bladder voiding efficiency (BVE); assay type: in vivo, human; conditions: for BVE, Value at Week 12, Mean(S.D.) / BVE, Change from Baseline at Week 12, Mean(S.D.): 200 mg orally twice a day for 12 weeks, FAS; for BVE change, Mean Difference = Compound 1-Placebo: Week 12; for Effect on voiding efficiency (in words): 12 weeks
Experimental: (§1) Patients having detrusor underactivity (DU) and at least one voiding symptom associated with DU, such as abdominal straining to void, slow urinary stream, intermittent stream, residual urine, and reduced voiding efficiency, were used as subjects. Using such subjects, a placebo-controlled double-blind comparative study was performed to examine the effectiveness and safety of Compound 1 (this test was performed using patients also having overactive bladder as subjects). Under double-blind conditions (in which neither the doctor who prescribed the drug nor the patients knew which drug was administered to each patient), 200 mg of Compound 1 or a placebo was orally administered twice a day after a meal for 12 weeks to evaluate the effectiveness and safety of Compound 1.
To evaluate the effectiveness, BVE (bladder voiding efficiency) was evaluated. BVE (%) was calculated by the following formula:
Voided volume/(Voided volume+Residual urine volume)×100.
The voided volume refers to the amount of urine per urination. The residual urine volume refers to the amount of urine that resides in the bladder as measured by transabdominal ultrasonography after completion of urination. The difference between the baseline (before administration) and the measurement value after 12 weeks of the administration was evaluated by using a paired t-test, whereas the difference in amount of BVE variation between the Compound 1 group and the placebo group was evaluated by using Student's t-test.

[2] = system: patients having lower urinary tract disorders; test: Placebo-controlled double-blind comparative study: adverse events and adverse drug reactions; assay type: in vivo, human
Experimental: as §1
To study the safety of Compound 1 in patients having lower urinary tract disorders, adverse events (any unfavorable medical event that occurred in patients who participated in this study; whether or not there is a causal relationship with the active ingredient) and adverse drug reactions (adverse events that are determined to “have a reasonable possibility” of a causal relationship with the drug) were measured.

[3] = patients with a residual urine volume of 50 mL or more, N=29
[4] = patients with a residual urine volume of 100 mL or more, N=19
[5] = patients with a residual urine volume of less than 50 mL, N=19
[6] = 200 mg orally twice a day for 12 weeks, All Treated Patients, N=52

With CC1=C(CCCCCCCCCCCCCCCO)C(C)(C)CCC1=O [Compound 1, 3-(15-hydroxypentadecyl)-2,4,4-trimethyl-2-cyclohexen-1-one] the “BVE, Value at Week 12, Mean(S.D.)” value ([1]; entire group of patients having lower urinary tract disorders, N=48) was 66.79 (27.04) %, the “BVE, Change from Baseline at Week 12, Mean(S.D.)” value (“BVE, Change from Baseline” for short) ([1]; entire group of patients, N=48) was 10.91% and 10.91 (26.48) % and the “BVE change, Mean Difference = Compound 1-Placebo” value ([1]; entire group of patients, Student's t-test p=0.178) was 8.49%. For the same compound, the “Effect on voiding efficiency (in words)” value ([1]; patients with a residual urine volume of 50 mL or more or of 100 mL or more) was “significantly increased the voiding efficiency”, the “BVE, Change from Baseline” value [1, 3] was 18.41% and 18.41 (24.39) % and the “BVE, Value at Week 12, Mean(S.D.)” value [1, 3] was 61.66 (30.45) %. The “BVE change, Mean Difference = Compound 1-Placebo” value ([1]; patients with a residual urine volume of 50 mL or more, Student's t-test p=0.031) was 15.53%, the “BVE, Change from Baseline” value [1, 4] was 23.57% and 23.57 (25.54) % and the “BVE, Value at Week 12, Mean(S.D.)” value [1, 4] was 54.71 (33.78) %. The “BVE change, Mean Difference = Compound 1-Placebo” value ([1]; patients with a residual urine volume of 100 mL or more, Student's t-test p=0.025) was 21.47%, the “BVE, Change from Baseline” value [1, 5] was −0.55 (25.99) % and the “BVE, Value at Week 12, Mean(S.D.)” value [1, 5] was 74.62 (18.94) %. The “Effect on voiding efficiency (in words)” value ([1]; patients with a residual urine volume of less than 50 mL) was “did not significantly increase the voiding efficiency”, the “BVE change, Mean Difference = Compound 1-Placebo” value ([1]; patients with a residual urine volume of less than 50 mL, Student's t-test p=0.853) was −2.09% and the “Adverse Drug Reactions, N (patients)” value [2, 6] was 0. The “Adverse Drug Reactions, incidence” value [2, 6] was 0.0%, the “Adverse Events, N (patients)” value [2, 6] was 24 and the “Adverse Events, incidence” value [2, 6] was 46.2%. For the same compound, the “Safety and tolerability (in words)” value ([2]; oral administration of 200 mg twice a day for 12 weeks) was “well tolerated”.
